In US12485073B2, “Oral care compositions and methods of use” (Colgate-Palmolive Company, priority 2019, dated 2025):

Key:
[1] = 1H NMR analysis of MeSA hydrolysis in aqueous alkaline solution; type: physicochemical; details: for effect of added amino acid or derivative on MeSA hydrolysis rate: pH 9.0, aqueous solution (FIG. 4, 7, 8); for ester hydrolysis: with or without Gly at pH 9.0, within 48 hours (FIG. 4)
Description: Direct detection and quantification of MeSA in aqueous solution is challenging due to its low water solubility. While ^1H NMR provides structural and quantitative information of the specific substrate in the aqueous mixture, the greatest limitation of NMR is its poor sensitivity. […] Typically, a high concentration of substrate is needed for NMR quantitative analysis. However, to quantify a substrate by NMR at concentrations at or below about 0.1 wt. % in water is not possible without effective solvent suppression. To overcome this hurdle, composite n/2 pulses were applied prior to pre-saturation pulses to effectively suppress the water peak of the sample.
Studies were conducted to test how pH affects MeSA hydrolysis.
Next, the phenolic hydroxyl group was examined to test whether it affects hydrolysis of MeSA at basic pH. The hydrolysis of two analogue compounds, namely, methyl benzoate and methyl paraben were studied as comparators.
The t-butyloxycarbonyl (BOC) and methyl ester groups are routinely used in peptide synthesis to protect amine and carboxyl group of amino acid from reaction.

[2] = Methyl salicylate concentration versus pH in presence of arginine, UV/Vis (FIG. 9); type: physicochemical
Description: As shown, degradation of methyl salicylate can be substantially mitigated even in the presence of an amino acid under accelerated aging conditions. A curve for the relationship between pH and the above compositions is illustrated in FIG. 9.

Compound | ester hydrolysis [1] | effect of added amino acid or derivative on MeSA hydrolysis rate [1] | also measured
NCCCC[C@H](N)C(=O)O [lysine] | – | accelerate the degradation of MeSA | –
CC(C)(C)OC(=O)NCC(=O)O [Boc-Gly-OH, reference compound] | – | much faster than that of MeSA alone | –
COC(=O)c1ccccc1 [methyl benzoate, reference compound] | no ester hydrolysis | – | –
COC(=O)CNC(=O)OC(C)(C)C [Boc-Gly methyl ester, reference compound] | – | significantly reduces to the same level as that of MeSA without Gly | –
COC(=O)CN [Gly methyl ester, reference compound] | – | slightly faster than that of MeSA only | –

Further lines, with some results ahead:

ester hydrolysis [1] | Compound | effect of added amino acid or derivative on MeSA hydrolysis rate [1] | also measured
significant hydrolysis | COC(=O)c1ccccc1O [MeSA, Methyl salicylate] | – | MeSA degradation ([2]; pH 7.5): dramatically increases; preservation of MeSA ([2]; pH at 6.5 or 7.0): good preservation; reduction of peak intensity of the methyoxy group of MeSA ([1]; after 12 hr hydrolysis, 0.05 wt % MeSA + 0.025 wt % glycine, pH 9.0, 25° C.): about 30%; degradation of MeSA concentration (hydrolysis rate) as solution is more basic ([1]; water without amino acid, pH range 8 to 11.5 (FIG. 3)): becomes faster; MeSA hydrolysis ([1]; with Gly at pH 7.0): drastically reduced
no ester hydrolysis | COC(=O)c1ccc(O)cc1 [methyl paraben, reference compound] | – | –
